We go through 2 compounds from US4174396A, “7,10-Dimethyl-5,9-imino-4,5,8,9-tetrahydro-cyclooct[b]thiophenes and a process for obtaining it” (Laboratories Made, S.A., priority 1978, dated 1979).

The subject of data set [1] is albino Swiss I.C.R. mice. Kind of data set: Thermal analgesia, 55° C. hot-plate technique. It counts as in vivo. To be noted: for Jumping time in sec. x ± S.E.M.: 50 mg/kg intraperitoneally, 30 minutes after dosing, 55° C. hot-plate, average ± standard error of the mean, control 64 ± 7.911. The procedure: The thermal analgesic effect has been studied in albino Swiss I.C.R. mice. The 55° C. hot-plate technique has been used. Batches of 10 mice were made.
The products under study were administered intraperitoneally. After 30 minutes the mice were placed on the hot-plate and note was made of the time it took them to jump, in seconds. Batches were made of control animals injected only with distilled water.

The test system of the next data set is white Swiss I.C.R. mice. Kind of data set: Chemical analgesia, acetic acid writhing technique. Conditions: for No. of writhes x ± S.E.M: 25 mg/kg intraperitoneally, 0.25 ml of 1% acetic acid after 30 minutes, writhes noted 20 minutes after acetic acid, control 130 ± 7.764. It counts as in vivo. As to the method:
The analgesic effect has been studied in white Swiss I.C.R. mice, with the acetic acid writhing technique. Batches of 10 mice were made.
The products under study were administered intraperitoneally, and after 30 minutes 0.25 ml of 1% acetic acid were injected intraperitoneally. A batch of control animals received only the acetic acid. The number of writhes in each mouse were noted 20 minutes after the acetic acid was administered.
For orientation: In writhing tests, fewer writhes than in controls are read as antinociception.

Data set [2] in a line: Acute toxicity (LD50, intraperitoneal, Litchfield-Wilcoxen). Type of data set: in vivo, albino Swiss I.C.R. mice. To be noted: mouse, in vivo, ip, mice, both sexes, deaths noted 48 hours after treatment. The procedure: (§1) Acute toxicity studies have been made in albino Swiss I.C.R. mice, of both sexes, of a weight of 30±2 g, kept without food for 24 hours prior to the experiment. Temperature and relative humidity of the atmosphere were kept constant. The products were administered intraperitoneally, the number of deaths having been noted 48 hours after treatment. The lethal dose (LD50) was calculated by the Litchfield-Wilcoxen test.

Data set [3] concerns albino Swiss I.C.R. mice. Described as above. To be noted: both sexes, deaths noted 48 hours after treatment. It counts as in vivo. As to the method:
as §1

Molecules are shown by their SMILES.

As to `CC1=CC2Cc3ccsc3C(C1)N2C` (stereo not drawn) [I, 7,10-dimethyl-5,9-imino-4,5,8,9-tetrahydrocyclooct[b]thiophene], in the data set with albino Swiss I.C.R. mice [1], the “Jumping time in sec. x ± S.E.M.” value stood at 114.2 ± 11.168 s. For the same compound, the “thermal analgesic activity (in words)” value in the data set with albino Swiss I.C.R. mice [1] (hot-plate, compared with dextropropoxyphene) is “shows analgesic activity, but of less potency than that of dextropropoxyphene”. Moreover, in the data set with white Swiss I.C.R. mice, the “No. of writhes x ± S.E.M” value is given as 85.3 ± 13.915. In addition, in the data set with white Swiss I.C.R. mice (No. of writhes, 25 mg/kg, versus dextropropoxyphene), the “Signif. of differences, Dextropropox.” value is reported as “N.S”. Besides, the “chemical analgesic activity (in words)” value in the data set with white Swiss I.C.R. mice (acetic acid writhing, compared with dextropropoxyphene) is “shows the same analgesic activity as dextropropoxyphene”. The LD50 (commonly the dose expected to kill half of the subjects tested) at 48 h in data set [2] was determined as 159 mg/kg.

With `CCC(=O)O[C@](Cc1ccccc1)(c1ccccc1)[C@H](C)CN(C)C` [Dextropropoxyphene, reference compound], the “Jumping time in sec. x ± S.E.M.” value with albino Swiss I.C.R. mice [1] turned out to be 164 ± 7.319 s. Further, the “No. of writhes x ± S.E.M” value with white Swiss I.C.R. mice is recorded as 68.4 ± 5.258. The same compound returned an LD50 in the data set with albino Swiss I.C.R. mice [3] of 140 mg/kg.
